Experimental data from paper PMC3931943, “Extraction of tamoxifen and its metabolites from formalin-fixed, paraffin-embedded tissues: an innovative quantitation method using liquid chromatography and tandem mass spectrometry” (Cancer Chemotherapy and Pharmacology, 2014).

Legend:
[1] = LC-MS/MS quantitation of TAM and its metabolites in archival FFPE breast tumor tissue of TAM-treated patients; assay type: in vivo, human; details: for Mean concentration in FFPE tissue, tumor recurrent patients: breast tumor recurrence patients (n = 16), mean 26 months on TAM; for Mean concentration in FFPE tissue, tumor recurrent patients / Mean concentration in FFPE tissue, tumor non-recurrent patients: 20 mg/day TAM for at least 6 months, mean ± SEM, Z-isomers quantitated; for Mean concentration in FFPE tissue, tumor non-recurrent patients: patients without tumor recurrence (n = 8), mean 22 months on TAM
Procedure: This study was approved by the Conjoint Health Research Ethics Board. FFPE tissue blocks were acquired from the archives of the pathology department at Foothills Medical Centre (Calgary, AB, Canada). Patients who had estrogen-receptor positive breast cancers diagnosed from 1990 to 2010 and treated with standard doses of TAM (20 mg/day of TAM for at least 6 months until time of biopsy with a treatment plan of 5 years on TAM) were selected for investigation. Patients were divided into two groups categorized as breast tumor recurrence (n = 16) and non-recurrence (n = 8).
Six 15 μm paraffin sections were removed from each FFPE tissue block and placed in a 1.5 mL eppendorf tube. The tissue sections were then deparaffinized by incubating with 1 mL of xylene for 10 min at room temperature. About 20 μL of I.S. was added followed by centrifugation at 20,000g for 5 min. Since xylene washes most of the TAM and metabolites from the paraffin sections, the supernatant was collected and transferred to a clean eppendorf tube. This procedure was repeated, and the two supernatants were combined followed by an SPE clean-up. Sample purification was performed via an SPE column vacuum manifold (Supelco, PA, USA). Samples were loaded onto the SPE columns previously conditioned with 3 mL of methanol and acetonitrile followed by a wash with 2 mL of 10 % methanol. The SPE cartridges were dried thereafter for 2 min, and the analytes were eluted with 2 mL of 5 % 50 mM ammonium acetate in methanol. Eluates were evaporated to dryness under a stream of nitrogen at 55 °C using a heating module obtained from Thermo Scientific/Pierce (Asheville, NC, USA). The dry extracts were then resuspended in 100 μL of acetonitrile/0.2 % formic acid (50:50).
Liquid chromatography was performed on a 1200 SL series LC system consisting of a binary pump, well-plate autosampler and thermostated column compartment (Agilent Technologies). Separation of TAM and metabolites was carried out using a Zorbax SB-C18 column (150 × 2.1 mm i.d., 3.5 μm particle size, Agilent Technologies) with a column temperature of 40 °C. Mobile phase consisted of 0.2 % formic acid and acetonitrile (60:40) at a flow rate of 0.2 mL/min with a gradient of 40–90 % of acetonitrile over 5 min. About 30 μL of the sample extract was injected onto the LC system. The total run time was 12 min including column equilibration.
MS detection of the analytes was accomplished by a 6410 triple-quadrupole mass spectrometer equipped with an electrospray ion source operating in the positive ion mode (Agilent Technologies). High purity nitrogen was used as the drying gas at a flow rate of 11 L/min with a gas temperature of 350 °C, and the nebulizer pressure was set at 35 psi. The capillary voltage was set at 4,000 V for each compound; however, the fragmentor voltages and the collision energies were operated at different settings for optimization of each analyte (Table 1). Quantitation was performed in multiple-reaction monitoring (MRM) mode, and the transitions of the precursors to product ions are summarized in Table 1. Data acquisition and analysis were performed using Mass Hunter Software v.B.02.01 (Agilent Technologies).

[2] = parameters: method as in PMID 17529893; details: frozen tissues (~2 mg), breast cancer patients, single dose of 20 mg TAM, samples 5 h postdrug administration; cited from earlier work

Row | SMILES | Mean concentration in FFPE tissue, tumor recurrent patients [1] [ng/g] | Mean concentration in FFPE tissue, tumor non-recurrent patients [1] | Detection in FFPE tissue of tumor recurrent patients ([1]; some of the tumor recurrent patients (data not shown), possibly below the detection limit of the assay) | Average concentration in frozen tissue [2] [ng/g] | Range of concentration in frozen tissue [2] [ng/g]
1 | CC/C(=C(\c1ccc(O)cc1)c1ccc(OCCNC)cc1)c1ccccc1 [Endoxifen, N-desmethyl-4-hydroxy-tamoxifen] | 19.2 ± 5.08 | 94.6 ± 41.0 ng/g | not found | – | –
2 | CC/C(=C(\c1ccccc1)c1ccc(OCCN(C)C)cc1)c1ccccc1 [TAM, Tamoxifen] | 122 ± 25.2 | 147 ± 51.7 ng/g | – | 118 | –
3 | CC/C(=C(\c1ccccc1)c1ccc(OCCNC)cc1)c1ccccc1 [DMT, N-desmethyl-tamoxifen] | 324 ± 103 | 1,256 ± 282.8 ng/g | – | 23.3 | 0 to 643
